{"source": "patent US6815546B2", "about": "“Analogues of camptothecin, their use as medicaments and the pharmaceutical compositions containing them” (Societe de Recherches et d'Applications Scientifiques …, priority 1995, dated 2004)", "format_in_all_cases": "cell-based", "key": {"[1]": {"tested_on": "A549 (human lung carcinoma)", "assay": "Test on cell proliferation (MTT test), A549", "details": "72 hours", "procedure": "(§1) a. Eight tumoral cell lines are used in this study: L1210 (mouse lymphocytic leukemia), HCT15 and LOVO (cell lines of human colon adenocarcinoma), A549 (human lung carcinoma), A172, U373 et U87 (human glioblastoma). All these lines are obtained from the American Type Culture Collection (ATCC), Rockville, Md. The L1210 cell cultures in suspension are cultured in Dulbecco's modified Eagle's medium (DMEM) (BioWhitaker, Verviers, Belgium) together with 10% of foetal calf serum inactivated by heating, 2 mM of glutamine, 50 μg/ml of penicillin and 50 μg/ml of streptomycin. The HT29 cells are cultured in mono-layer cultures in a McCoy 5a medium (Gibco, Paisley, United Kingdom) together with 10% of foetal calf serum inactivated by heat plus 2 mM of glutamine and 50 μg/ml of gentamycin. The other cells are cultured in an Earle's modified essential medium (EMEM; Gibco, Paisley, United Kingdom) together with 5% foetal calf serum inactivated by heat, 2 mM of glutamine, 50 U/ml of penicillin and 50 μg/ml of streptomycin. All the cell lines are cultured at 37° C. in a humidified atmosphere containing 95% air and 5% CO2.\n(§2) Inhibition of the tumor cell line proliferation is determined using an MTT test. 1500 L1210 cells in a culture medium (according to the needs of the cell medium) are seeded in a well of a micro-well plate (tissue culture level: 96 wells, flat bottom) 24 hours before treatment with the compounds to be tested. For these dose-response studies, the cells are incubated with each of the compounds to be tested or their corresponding solvent (controls) for 48 hours over a final concentration range of 1.10^−10 to 1.10^−4 M. All the compounds are dissolved just before use in dimethylsulphoxide (DMSO) at a concentration of 50 mM. Other dilutions of the medicaments are carried out in the culture medium. The final concentration of DMSO never exceeds 0.2% (v/v). As controls, the solutions of medicaments are replaced with the solvent which is diluted successively in the same way as the compounds to be tested.\n(§3) After the incubation period, the labeling reagent MTT (3-[4,5-dimethylthiazol-2-yl]-2,5-diphenyltetrazolium bromide; Thiazol blue, Sigma M 565, Sigma, St Louis, Mo.) is added at a final concentration of 0.3 mg/ml to each well. The cells are incubated for 4 hours at 37° C. in a humidified atmosphere. This stage allows the mitochondrial dehydrogenase of the living cells to convert the yellow tetrazolium salt MTT into crimson formazan crystals. The supernatant part is eliminated and the formazan crystals formed are solubilized with DMSO. The resultant coloured solution is quantified by absorbance at 570 nm by using a multi-cuvette scanning spectrophotometer. The data concerning the proliferation is expressed as a percentage of living cells in the treated wells, divided by the living cells in the controls. Each point represents the average of three independent experiments, each experiment represents six determinations.\n(§4) For the other cell lines (HCT15, LOVO, A549, A172, U373, U87), 1000 to 2000 cells are seeded in the well of a micro-well plate 24 hours before medicinal treatment. […]\n(§5) The results are expressed as percentages of the calculated proliferation by the optical density (OD) of the cells treated with a medicament divided by the OD of the control cells (cells treated with DMSO). As represented in Table II, the compounds to be tested have inhibited the proliferation of cells in a dose-dependent manner."}, "U87 (human glioblastoma)": {"tested_on": "U87 (human glioblastoma)", "assay": "Test on cell proliferation (MTT test), U87", "details": "72 hours", "procedure": "as §1, §2, §3, §4, §5"}, "[2]": {"tested_on": "L1210 (mouse lymphocytic leukemia)", "assay": "Test on cell proliferation (MTT test), L1210", "details": "48 hours", "procedure": "as §1, §2, §3, §5"}, "[3]": {"tested_on": "A172 (human glioblastoma)", "assay": "Test on cell proliferation (MTT test), A172", "details": "72 hours", "procedure": "as §1, §2, §3, §4, §5"}, "[4]": {"tested_on": "HCT15 (cell lines of human colon adenocarcinoma)", "assay": "Test on cell proliferation (MTT test), HCT15", "details": "72 hours", "procedure": "as §1, §2, §3, §4, §5"}, "[5]": {"tested_on": "LOVO (cell lines of human colon adenocarcinoma)", "assay": "Test on cell proliferation (MTT test), LOVO", "details": "72 hours", "procedure": "as §1, §2, §3, §4, §5"}, "[6]": {"tested_on": "U373 (human glioblastoma)", "assay": "Test on cell proliferation (MTT test), U373", "details": "72 hours", "procedure": "as §1, §2, §3, §4, §5"}}, "data": [{"molecule": "CCC(O)(CC(=O)O)c1cc2n(c(=O)c1CO)Cc1cc3ccccc3nc1-2", "note": "(stereo not shown) [Example 4, 3-hydroxy-3-[8-(hydroxymethyl)-9-oxo-9,11-dihydroindolizino [1,2-b]quinolin-7-yl]pentanoic acid]", "values": [{"measurement": "PERCENTAGE OF CELL PROLIFERATION", "setting": "[1]; 0.1 nM", "result": 71.00, "unit": "%"}, {"measurement": "PERCENTAGE OF CELL PROLIFERATION", "setting": "[1]; 1 nM", "result": 76.00, "unit": "%"}, {"measurement": "PERCENTAGE OF CELL PROLIFERATION", "setting": "[1]; 10 nM", "result": 71.00, "unit": "%"}, {"measurement": "PERCENTAGE OF CELL PROLIFERATION", "setting": "[1]; 100 nM", "result": 56.00, "unit": "%"}, {"measurement": "PERCENTAGE OF CELL PROLIFERATION", "setting": "[1]; 1 000 nM", "result": 36.00, "unit": "%"}, {"measurement": "PERCENTAGE OF CELL PROLIFERATION", "setting": "[1]; 10 000 nM", "result": 22.00, "unit": "%"}, {"measurement": "PERCENTAGE OF CELL PROLIFERATION", "setting": "[1]; 100 000 nM", "result": 12.00, "unit": "%"}, {"measurement": "PERCENTAGE OF CELL PROLIFERATION", "setting": "U87 (human glioblastoma); 0.1 nM", "result": 98.00, "unit": "%"}, {"measurement": "PERCENTAGE OF CELL PROLIFERATION", "setting": "U87 (human glioblastoma); 1 nM", "result": 101.00, "unit": "%"}, {"measurement": "PERCENTAGE OF CELL PROLIFERATION", "setting": "U87 (human glioblastoma); 10 nM", "result": 98.00, "unit": "%"}, {"measurement": "PERCENTAGE OF CELL PROLIFERATION", "setting": "U87 (human glioblastoma); 100 nM", "result": 74.00, "unit": "%"}, {"measurement": "PERCENTAGE OF CELL PROLIFERATION", "setting": "U87 (human glioblastoma); 1 000 nM", "result": 11.00, "unit": "%"}, {"measurement": "PERCENTAGE OF CELL PROLIFERATION", "setting": "U87 (human glioblastoma); 10 000 nM", "result": 6.00, "unit": "%"}, {"measurement": "PERCENTAGE OF CELL PROLIFERATION", "setting": "U87 (human glioblastoma); 100 000 nM", "result": 2.00, "unit": "%"}, {"measurement": "PERCENTAGE OF CELL PROLIFERATION", "setting": "[2]; 0.1 nM", "result": 92.14, "unit": "%"}, {"measurement": "PERCENTAGE OF CELL PROLIFERATION", "setting": "[2]; 1 nM", "result": 97.14, "unit": "%"}, {"measurement": "PERCENTAGE OF CELL PROLIFERATION", "setting": "[2]; 10 nM", "result": 91.08, "unit": "%"}, {"measurement": "PERCENTAGE OF CELL PROLIFERATION", "setting": "[2]; 100 nM", "result": 86.28, "unit": "%"}, {"measurement": "PERCENTAGE OF CELL PROLIFERATION", "setting": "[2]; 1 000 nM", "result": 46.79, "unit": "%"}, {"measurement": "PERCENTAGE OF CELL PROLIFERATION", "setting": "[2]; 10 000 nM", "result": 27.80, "unit": "%"}, {"measurement": "PERCENTAGE OF CELL PROLIFERATION", "setting": "[2]; 100 000 nM", "result": 8.09, "unit": "%"}, {"measurement": "PERCENTAGE OF CELL PROLIFERATION", "setting": "[3]; 0.1 nM", "result": 93.00, "unit": "%"}, {"measurement": "PERCENTAGE OF CELL PROLIFERATION", "setting": "[3]; 1 nM", "result": 92.00, "unit": "%"}, {"measurement": "PERCENTAGE OF CELL PROLIFERATION", "setting": "[3]; 10 nM", "result": 98.00, "unit": "%"}, {"measurement": "PERCENTAGE OF CELL PROLIFERATION", "setting": "[3]; 100 nM", "result": 97.00, "unit": "%"}, {"measurement": "PERCENTAGE OF CELL PROLIFERATION", "setting": "[3]; 1 000 nM", "result": 44.00, "unit": "%"}, {"measurement": "PERCENTAGE OF CELL PROLIFERATION", "setting": "[3]; 10 000 nM", "result": 31.00, "unit": "%"}, {"measurement": "PERCENTAGE OF CELL PROLIFERATION", "setting": "[3]; 100 000 nM", "result": 10.00, "unit": "%"}, {"measurement": "PERCENTAGE OF CELL PROLIFERATION", "setting": "[4]; 0.1 nM", "result": 91.00, "unit": "%"}, {"measurement": "PERCENTAGE OF CELL PROLIFERATION", "setting": "[4]; 1 nM", "result": 92.00, "unit": "%"}, {"measurement": "PERCENTAGE OF CELL PROLIFERATION", "setting": "[4]; 10 nM", "result": 86.00, "unit": "%"}, {"measurement": "PERCENTAGE OF CELL PROLIFERATION", "setting": "[4]; 100 nM", "result": 78.00, "unit": "%"}, {"measurement": "PERCENTAGE OF CELL PROLIFERATION", "setting": "[4]; 1 000 nM", "result": 54.00, "unit": "%"}, {"measurement": "PERCENTAGE OF CELL PROLIFERATION", "setting": "[4]; 10 000 nM", "result": 20.00, "unit": "%"}, {"measurement": "PERCENTAGE OF CELL PROLIFERATION", "setting": "[4]; 100 000 nM", "result": 7.00, "unit": "%"}, {"measurement": "PERCENTAGE OF CELL PROLIFERATION", "setting": "[5]; 0.1 nM", "result": 80.00, "unit": "%"}, {"measurement": "PERCENTAGE OF CELL PROLIFERATION", "setting": "[5]; 1 nM", "result": 75.00, "unit": "%"}, {"measurement": "PERCENTAGE OF CELL PROLIFERATION", "setting": "[5]; 10 nM", "result": 79.00, "unit": "%"}, {"measurement": "PERCENTAGE OF CELL PROLIFERATION", "setting": "[5]; 100 nM", "result": 69.00, "unit": "%"}, {"measurement": "PERCENTAGE OF CELL PROLIFERATION", "setting": "[5]; 1 000 nM", "result": 38.00, "unit": "%"}, {"measurement": "PERCENTAGE OF CELL PROLIFERATION", "setting": "[5]; 10 000 nM", "result": 21.00, "unit": "%"}, {"measurement": "PERCENTAGE OF CELL PROLIFERATION", "setting": "[5]; 100 000 nM", "result": 5.00, "unit": "%"}, {"measurement": "PERCENTAGE OF CELL PROLIFERATION", "setting": "[6]; 0.1 nM", "result": 86.00, "unit": "%"}, {"measurement": "PERCENTAGE OF CELL PROLIFERATION", "setting": "[6]; 1 nM", "result": 85.00, "unit": "%"}, {"measurement": "PERCENTAGE OF CELL PROLIFERATION", "setting": "[6]; 10 nM", "result": 89.00, "unit": "%"}, {"measurement": "PERCENTAGE OF CELL PROLIFERATION", "setting": "[6]; 100 nM", "result": 63.00, "unit": "%"}, {"measurement": "PERCENTAGE OF CELL PROLIFERATION", "setting": "[6]; 1 000 nM", "result": 30.00, "unit": "%"}, {"measurement": "PERCENTAGE OF CELL PROLIFERATION", "setting": "[6]; 10 000 nM", "result": 16.00, "unit": "%"}, {"measurement": "PERCENTAGE OF CELL PROLIFERATION", "setting": "[6]; 100 000 nM", "result": 2.00, "unit": "%"}]}]}
